Reference: patent US9433686B2, “Methods for treating castration resistant prostate cancer and metastasis by reducing B-cell number and/or function” (The Regents of the University of California, priority 2011, dated 2016)

Key:
[1] = test system: IKK; assay: IκBα phosphorylation in PMA-stimulated Myc-CaP cells; format: cell-based, mouse; details: 1 hr pre-treatment, AG490 100 μM, PMA 10 ng/ml 10 min
Experimental: (§1) FIG. 15. Selectivity of IKKβ and STAT3 phosphorylation inhibitors. A. Myc-CaP cells were cultured to 60% confluency and pre-treated for 1 hr with AG490 (100 μM) or ML120B (20 μM), followed by stimulation with PMA (10 ng/ml) for 10 min. Cells were collected and IκBα phosphorylation was analyzed. B. Myc-CaP cells were pre-treated with AG490 or ML120B and after 1 hr, were stimulated with IL-6 (20 ng/ml) for 30 min. Cells were collected and STAT3 phosphorylation was analyzed by immunoblotting.
(§2) Total tissue RNA was prepared using RNAeasy (Qiagen). Quantitative PCR was performed as described^38. Cells and tumors were lysed and analyzed by SDS-polyacrylamide gel electrophoresis and immunoblotting^38 with antibodies to histone H3, α-tubulin, STAT3 (Santa Cruz Biotechnology), ERK, phospho-ERK, AKT, phospho-AKT, phospho-STAT3 (Cell Signaling). Nuclear extracts were prepared and analyzed for NF-κB DNA-binding as described^39.

[2] = test system: myc-CaP tumors; assay: CR-CaP re-growth (tumor volume) of s.c. myc-CaP allografts after castration; format: in vivo, FVB mice; details: castrated mice bearing s.c. myc-CaP tumors
Experimental: FIG. 4. IKKβ-dependent lymphotoxin production by tumor-infiltrating B cells stimulates IKKα-dependent androgen-free survival. A. RNA from splenic B cells of Ikkβ^F/F and Ikkβ^Δ/Δ mice was analyzed for LTα and LTβ expression as above. Results are averages±s.d. (n=3). B. Lethally irradiated FVB males were reconstituted with BM from B-Ltβ^−/− or T-Ltβ^−/− mice (n=6 per group). After 8 weeks, myc-CaP tumors were established, mice were castrated and tumor volume was measured as above. Results are averages±s.e.m. C. FVB mice (n=6 each group) bearing myc-CaP tumors were castrated and given hIgG or LTβR-Ig (100 μg) every 5 days, starting 4 days before castration. Tumor volume was measured as above. Results are averages±s.e.m. […] Mice were castrated and tumor volume was measured. […] After 6 hrs, the cells were cultured with or without flutamide (10 μM) in the absence or presence of LTα2β1, and cell number was determined. […] After 12 hrs, cells were stimulated for 1 hr with LTα2β1, collected, divided into cytosolic (C) and nuclear (N) fractions and IKKα and histone H3 distribution was determined. In A, B, C, D and E, P values were determined and are indicated as above.
FIG. 8. […] Five months later, mice were sacrificed and prostate tumor weight and incidence of lymph node, lung and liver metastases were determined. […] Tumor volume in above mice was measured every 2-3 days. […] Tumor volume was measured as above. […]

[3] = test system: STAT3; assay: STAT3 phosphorylation in myc-CaP tumors after castration (immunohistochemistry); format: in vivo, FVB mice; details: phospho-STAT3 staining
From the text: FIG. 14. STAT3 activation and its role in CR-CaP emergence. A,B WT+Ikkβ^F/F and WT+Ikkβ^Δ/Δ radiation chimeras (n=10 each group) bearing myc-CaP allografts were established as above and injected with poly(IC) to delete IKKβ[…] in BMDC before castration or sham operation. After one month, mice were sacrificed for analysis. A. Lymphocytes were isolated from indicated tissues and analyzed for IKKβ expression. B. Tumor samples were immunoblotted to determine expression and phosphorylation of indicated signaling proteins. C,D FVB mice bearing myc-CaP tumors were castrated. Starting one day before castration, the mice (n=10 per group) were injected twice daily with vehicle or AG490, an inhibitor of STAT3 phosphorylation. C. One week after castration, tumors were collected, paraffin-embedded, sectioned and stained with phospho-STAT3 antibody. D. Tumor volume was measured every 2-3 days as above. Results are averages±s.e.m. P values were determined and are indicated as above.
FIG. 23. LTβ is required for IKKα nuclear localization and STAT3 phosphorylation. Mice carrying Myc-CaP tumors were castrated and treated with vehicle or LTβR-Ig as described above. Paraffin-embedded sections were analyzed for IKKα nuclear localization and STAT3 phosphorylation.
Mouse prostate and CaP tissues and dissected metastatic tumors were immersed in 10% neutral buffered formalin before sectioning and paraffin embedding. […]

[4] = test system: STAT3; assay: STAT3 phosphorylation in IL-6-stimulated Myc-CaP cells (immunoblotting); format: cell-based, mouse; details: 1 hr pre-treatment, IL-6 20 ng/ml 30 min
Experimental: as §1, §2

SMILES	IKK activation (IκBα phosphorylation) [1]	CR-CaP growth / appearance after castration (tumor volume) [2]	STAT3 activation (phosphorylation) in CaP cells of tumors [3]	STAT3 activation (phosphorylation) [4]
N#C/C(=C/c1ccc(O)c(O)c1)C(=O)NCc1ccccc1 [A490]	did not inhibit	delayed	inhibitable	–
COc1c(Cl)cc2c([nH]c3cnccc32)c1NC(=O)c1cccnc1C [ML120B, N-(6-chloro-7-methoxy-9H-β-carbolin-8-yl)-2-methylnicotinamide]	–	–	–	did not inhibit
